Patent US4016258A, “Vasoactive intestinal peptide from fowl” (priority 1975, dated 1977)
Ends that are not written are not given here.

Legend:
Intact anesthetized dogs = assay: Intact anesthetized dogs: infusion into one femoral artery, femoral blood flow and aortic blood pressure measured; format: in vivo, dog; conditions: for hypotensive effect compared with the porcine peptide: dogs, comparison with porcine vasoactive intestinal peptide
Source text: 1. Intact anesthetized dogs
The peptide was infused into one femoral artery, and the blood flow in that artery, as well as the aortic blood pressure, were continually measured. During the infusion of the peptide, blood pressure fell and blood flow increased, indicating peripheral vasodilation.

guinea pig gallbladder = assay: Isolated smooth-muscle organ strips superfused in series: guinea pig gallbladder; conditions: guinea pig gallbladder strip superfused with Krebs solution
Source text: (§1) 2. Isolated smooth-muscle organs
(§2) Four strips of smooth-muscle organs: rat stomach, guinea pig trachea, rat colon, and guinea pig gallbladder, were placed in series and superfused with warm physiological solution (Krebs), bubbled with 95% O2 and 5% CO2. The organ strips were attached to special transducers which measured their contraction or relaxation.

guinea pig trachea = assay: Isolated smooth-muscle organ strips superfused in series: guinea pig trachea
Source text: as §1, §2

rat colon = assay: Isolated smooth-muscle organ strips superfused in series: rat colon; conditions: rat colon strip superfused with Krebs solution
Source text: as §1, §2

rat stomach = assay: Isolated smooth-muscle organ strips superfused in series: rat stomach; conditions: rat stomach strip superfused with Krebs solution; often initial brief contraction followed by relaxation
Source text: as §1, §2

Substance: HSDAVFTDNYSRFRKQMAVKKYLNSVLT-NH2 [chicken peptide]
- aortic blood pressure during infusion (Intact anesthetized dogs; anesthetized dogs, infusion into femoral artery): fell
- blood flow in femoral artery during infusion (Intact anesthetized dogs; anesthetized dogs, infusion into femoral artery, indicates peripheral vasodilation): increased
- hypotensive effect compared with the porcine peptide (Intact anesthetized dogs): less marked and shorter lasting
- hypotensive effect compared with the porcine peptide (Intact anesthetized dogs; listed as peptide): relatively short duration
- effects on gallbladder strip (guinea pig gallbladder): variable
- relaxation of trachea compared with porcine peptide (guinea pig trachea; doses eliciting equal relaxation of stomach, chicken vs porcine peptide): many times greater
- effect on trachea strip (guinea pig trachea; guinea pig trachea strip superfused with Krebs solution): relaxation
- relaxant potency on guinea pig trachea relative to other smooth muscles tested (guinea pig trachea; in comparison with porcine vasoactive intestinal peptide): relatively more potent relaxant
- effect on colon strip (rat colon): usually contracted
- effect on stomach strip (rat stomach): relaxation
